Measured values from patent US9980943B2, “Methods of treating muscular dystrophy” (BOARD OF REGENTS OF THE NEVADA SYSTEM OF HIGHER EDUCATION, …, priority 2013, dated 2018).

Tests used:
Type in all cases: cell-based, mouse
[1] = test system: β-galactosidase in CMV-LacZ C2C12 myotubes; assay: CMV-LacZ secondary screen in C2C12 myotubes (β-Gal stabilizing assay); details: for CMV-LACZ in Myotubes, value relative to DMSO: SU9516 analogs, C2C12 CMV-LacZ, N=2; for CMV-LACZ in Myotubes, signal relative to DMSO: C2C12 CMV-LacZ myotubes, fold relative to DMSO
How it was run: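 β-Gal level was the read-out, measured in a clonal C2C12 line expressing LacZ from a CMV promoter. Dose-response curves used six concentrations, 0.5 μM up to 40 μM, with duplicate points.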

[2] = test system: β-galactosidase in CMV-LacZ C2C12 myoblasts; assay: CMV-LacZ secondary screen in C2C12 myoblasts (β-Gal stabilizing assay); details: for CMV-LACZ in Myoblasts, value relative to DMSO: SU9516 analogs, C2C12 CMV-LacZ, N=2; for CMV-LACZ in Myoblasts (β-galactosidase activity relative to DMSO): CMV-LacZ C2C12 myoblasts
How it was run: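 A secondary screen identifies compounds that stabilize β-gal independently of the native promoter, using CMV-LacZ C2C12 cells. Curves span 0.5–40 μM at six levels, in duplicate.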

[3] = test system: α7 integrin (LacZ reporter in α7βgal+/− myoblasts); assay: Myoblast α7+/LacZ integrin FDG assay (Burkin assay in myoblasts, 96-well); details: 96-well; for Burkin Assay in Myoblasts, value relative to DMSO: SU9516 analogs, N=3-6; for Burkin Assay in Myoblasts, signal relative to DMSO: α7+/LacZ myoblasts
[4] = test system: α7 integrin (LacZ reporter in α7+/LacZ myotubes); assay: Myotube α7 integrin FDG assay (Burkin assay in myotubes, 96-well); details: for Burkin Assay in Myotubes, value relative to DMSO: SU9516 analogs, 96-well, N=3-6

## O=C1Nc2ccccc2/C1=C/c1ccc([N+](=O)[O-])cc1 [MLS001194544-01]
[1]; 0.5 uM
  CMV-LACZ in Myotubes, value relative to DMSO: 1.0764
[1]; 1 uM
  CMV-LACZ in Myotubes, value relative to DMSO: 1.1318
[1]; 5 uM
  CMV-LACZ in Myotubes, value relative to DMSO: 0.9683
[1]; 10 uM
  CMV-LACZ in Myotubes, value relative to DMSO: 0.9739
[1]; 20 uM
  CMV-LACZ in Myotubes, value relative to DMSO: 0.9800
[1]; 40 uM
  CMV-LACZ in Myotubes, value relative to DMSO: 0.9400
[2]; 0.5 uM
  CMV-LACZ in Myoblasts, value relative to DMSO: 0.8975
[2]; 1 uM
  CMV-LACZ in Myoblasts, value relative to DMSO: 0.7213
[2]; 5 uM
  CMV-LACZ in Myoblasts, value relative to DMSO: 0.9068
[2]; 10 uM
  CMV-LACZ in Myoblasts, value relative to DMSO: 1.0363
[2]; 20 uM
  CMV-LACZ in Myoblasts, value relative to DMSO: 0.8983
[2]; 40 uM
  CMV-LACZ in Myoblasts, value relative to DMSO: 0.7383
[3]; 0.5 uM
  Burkin Assay in Myoblasts, value relative to DMSO: 1.044
[3]; 1 uM
  Burkin Assay in Myoblasts, value relative to DMSO: 0.9906
[3]; 5 uM
  Burkin Assay in Myoblasts, value relative to DMSO: 1.02
[3]; 10 uM
  Burkin Assay in Myoblasts, value relative to DMSO: 1.145
[3]; 20 uM
  Burkin Assay in Myoblasts, value relative to DMSO: 0.7914
[3]; 40 uM
  Burkin Assay in Myoblasts, value relative to DMSO: 0.5028
[4]; 0.5 uM
  Burkin Assay in Myotubes, value relative to DMSO: 0.9611
[4]; 1 uM
  Burkin Assay in Myotubes, value relative to DMSO: 0.9995
[4]; 5 uM
  Burkin Assay in Myotubes, value relative to DMSO: 1.002
[4]; 10 uM
  Burkin Assay in Myotubes, value relative to DMSO: 1.07
[4]; 20 uM
  Burkin Assay in Myotubes, value relative to DMSO: 0.754
[4]; 40 uM
  Burkin Assay in Myotubes, value relative to DMSO: 0.7611

## O=C(O)COc1ccccc1/C=C1\C(=O)Nc2ccc(Br)cc21 [MLS001196427-01]
[1]; 0.5 uM
  CMV-LACZ in Myotubes, value relative to DMSO: 0.9363
[1]; 1 uM
  CMV-LACZ in Myotubes, value relative to DMSO: 1.0704
[1]; 5 uM
  CMV-LACZ in Myotubes, value relative to DMSO: 0.8423
[1]; 10 uM
  CMV-LACZ in Myotubes, value relative to DMSO: 0.9282
[1]; 20 uM
  CMV-LACZ in Myotubes, value relative to DMSO: 0.9918
[1]; 40 uM
  CMV-LACZ in Myotubes, value relative to DMSO: 0.9000
[2]; 0.5 uM
  CMV-LACZ in Myoblasts, value relative to DMSO: 0.7219
[2]; 1 uM
  CMV-LACZ in Myoblasts, value relative to DMSO: 1.0356
[2]; 5 uM
  CMV-LACZ in Myoblasts, value relative to DMSO: 0.9957
[2]; 10 uM
  CMV-LACZ in Myoblasts, value relative to DMSO: 1.1811
[2]; 20 uM
  CMV-LACZ in Myoblasts, value relative to DMSO: 0.7144
[2]; 40 uM
  CMV-LACZ in Myoblasts, value relative to DMSO: 0.9563
[3]; 0.5 uM
  Burkin Assay in Myoblasts, value relative to DMSO: 1.02
[3]; 1 uM
  Burkin Assay in Myoblasts, value relative to DMSO: 1.033
[3]; 5 uM
  Burkin Assay in Myoblasts, value relative to DMSO: 0.9384
[3]; 10 uM
  Burkin Assay in Myoblasts, value relative to DMSO: 0.9777
[3]; 20 uM
  Burkin Assay in Myoblasts, value relative to DMSO: 0.8102
[3]; 40 uM
  Burkin Assay in Myoblasts, value relative to DMSO: 0.8763
[4]; 0.5 uM
  Burkin Assay in Myotubes, value relative to DMSO: 0.9194
[4]; 1 uM
  Burkin Assay in Myotubes, value relative to DMSO: 1.02
[4]; 5 uM
  Burkin Assay in Myotubes, value relative to DMSO: 1.022
[4]; 10 uM
  Burkin Assay in Myotubes, value relative to DMSO: 1.135
[4]; 20 uM
  Burkin Assay in Myotubes, value relative to DMSO: 0.7942
[4]; 40 uM
  Burkin Assay in Myotubes, value relative to DMSO: 0.9365

## O=C(N/N=C/c1c[nH]c2ccccc12)c1cc(Cl)ccc1O [MLS001196572-01]
[1]; 0.5 uM
  CMV-LACZ in Myotubes, signal relative to DMSO: 0.9632
[1]; 1 uM
  CMV-LACZ in Myotubes, signal relative to DMSO: 0.9379
[1]; 5 uM
  CMV-LACZ in Myotubes, signal relative to DMSO: 0.9853
[1]; 10 uM
  CMV-LACZ in Myotubes, signal relative to DMSO: 1.0223
[1]; 20 uM
  CMV-LACZ in Myotubes, signal relative to DMSO: 1.1456
[1]; 40 uM
  CMV-LACZ in Myotubes, signal relative to DMSO: 1.1422
[2]; 0.5 uM
  CMV-LACZ in Myoblasts (β-galactosidase activity relative to DMSO): 1.0105
[2]; 1 uM
  CMV-LACZ in Myoblasts (β-galactosidase activity relative to DMSO): 1.3172
[2]; 5 uM
  CMV-LACZ in Myoblasts (β-galactosidase activity relative to DMSO): 1.0605
[2]; 10 uM
  CMV-LACZ in Myoblasts (β-galactosidase activity relative to DMSO): 0.9456
[2]; 20 uM
  CMV-LACZ in Myoblasts (β-galactosidase activity relative to DMSO): 1.0767
[2]; 40 uM
  CMV-LACZ in Myoblasts (β-galactosidase activity relative to DMSO): 1.0778
[3]; 0.5 uM
  Burkin Assay in Myoblasts, signal relative to DMSO: 0.8826
[3]; 1 uM
  Burkin Assay in Myoblasts, signal relative to DMSO: 0.7626
[3]; 5 uM
  Burkin Assay in Myoblasts, signal relative to DMSO: 1.224
[3]; 10 uM
  Burkin Assay in Myoblasts, signal relative to DMSO: 0.9483
[3]; 20 uM
  Burkin Assay in Myoblasts, signal relative to DMSO: 0.9362
[3]; 40 uM
  Burkin Assay in Myoblasts, signal relative to DMSO: 0.9345
[4]; 0.5 uM
  Burkin Assay in Myotubes, α7 integrin LacZ reporter signal relative to DMSO: 0.9236
[4]; 1 uM
  Burkin Assay in Myotubes, α7 integrin LacZ reporter signal relative to DMSO: 0.8882
[4]; 5 uM
  Burkin Assay in Myotubes, α7 integrin LacZ reporter signal relative to DMSO: 1.148
[4]; 10 uM
  Burkin Assay in Myotubes, α7 integrin LacZ reporter signal relative to DMSO: 0.9294
[4]; 20 uM
  Burkin Assay in Myotubes, α7 integrin LacZ reporter signal relative to DMSO: 0.9805
[4]; 40 uM
  Burkin Assay in Myotubes, α7 integrin LacZ reporter signal relative to DMSO: 0.7181
